Data published in patent US20080103199A1, “TREATMENT OF PERVASIVE DEVELOPMENTAL DISORDERS” (priority 2006, published 2008).

What was measured:
[1] = tested on: male mice; assay: General behavior of male mice, visual observation using a checklist of behaviors; type: in vivo; details: for Number of Mice Affected: Decreased Startle Reflex / Number of Mice Affected: Extensor Limb Tone (hind limb) / Number of Mice Affected: Impaired Horizontal Screen Performance / Number of Mice Affected: Impaired Visual Placing Reflex / Number of Mice Affected: Locomotor Ataxia / Number of Mice Affected: Loss of Corneal Reflex / Number of Mice Affected: Loss of Pinnal Reflex / Number of Mice Affected: Loss of Righting Reflex / Number of Mice Affected: Passive Response to Handling / Number of Mice Affected: Reduced Skin Plasticity / Number of Mice Affected: Soft Body Tone / Number of Mice Affected: Tail Pinch Response, Absent / Number of Mice Affected: Decreased Open Field Activity: N = 3/group
Procedure: The effects of test compound on general behavior were evaluated by visual observation using a checklist of behaviors.

[2] = tested on: dominant rats; assay: Reduction of Dominant Behavior Model (RDBM) of mania, dominant-submissive rat food competition test; type: in vivo, Sprague-Dawley rats; details: 5 weeks, dominant rat treated
Excerpt: In this study, the effects of COMPOUND #7 on dominant or submissive behavior in pairs of rats competing for food are examined. It has been shown that anti-manic drugs, including anticonvulsants, decrease dominance and antidepressant drugs reduce submissiveness. This model uses dominant behavior as a model of mania and submissive behavior as a model of depression. The dominance and submissiveness is defined in a competition test and measured as the relative success of two food-restricted rats to gain access to a feeder. Rats are randomly paired and placed in an apparatus allowing them to compete for a food reward. The dominant-submissive relationship develops over a 2-week period. The submissive or dominant animals in pairs selected after 2 weeks of training were treated orally […] (b.i.d.) with COMPOUND #7 at 3 or 30 mg/kg for 5 weeks. […]
The objective of this study was to determine if COMPOUND #7 is active in the Reduction of Submissive Behavior Model (RSBM) of depression and the Reduction of Dominant Behavior Model (RDBM) of mania. […] The endpoints measured were the development of a significant reduction of submissive or dominant behavior and its time of onset. […]
(§1) The test involves placing each member of a pair in opposite chambers of the testing apparatus. […] The test is conducted once a day over a 5-minute period and the time spent on the feeder by each animal is recorded. […]

[3] = tested on: submissive rats; assay: Reduction of Submissive Behavior Model (RSBM) of depression, dominant-submissive rat food competition test; type: in vivo, Sprague-Dawley rats; details: 5 weeks, submissive rat treated
Excerpt: In this study, the effects of COMPOUND #7 on dominant or submissive behavior in pairs of rats competing for food are examined. It has been shown that anti-manic drugs, including anticonvulsants, decrease dominance and antidepressant drugs reduce submissiveness. This model uses dominant behavior as a model of mania and submissive behavior as a model of depression. The dominance and submissiveness is defined in a competition test and measured as the relative success of two food-restricted rats to gain access to a feeder. Rats are randomly paired and placed in an apparatus allowing them to compete for a food reward. The dominant-submissive relationship develops over a 2-week period. The submissive or dominant animals in pairs selected after 2 weeks of training were treated orally […] (b.i.d.) with COMPOUND #7 at 3 or 30 mg/kg for 5 weeks. The partner of the drug-treated animal was treated with vehicle.
The objective of this study was to determine if COMPOUND #7 is active in the Reduction of Submissive Behavior Model (RSBM) of depression and the Reduction of Dominant Behavior Model (RDBM) of mania. Measurements were made at two doses (3 and 30 mg/kg) after oral twice a day (b.i.d.) administration. The effect of the drug in the RSBM was compared to the effect of fluoxetine (10 mg/kg) and vehicle (0.5% methylcellulose). The effect of the drug in the RDBM was compared with the effect of lithium (100 mg/kg) and vehicle (0.5% methylcellulose). The endpoints measured were the development of a significant reduction of submissive or dominant behavior and its time of onset.
The DSR developed by two rats competing for food uses the apparatus in FIG. 1.
In the experiments described in this report Sprague-Dawley rats weighing 160 to 180 g were used. Testing for the development of a DSR between paired rats begins with the random assignment of rats into pairs. […]
as §1

With `NC(=O)OC[C@@H](O)c1ccccc1Cl` [COMPOUND #7] the “Number of Mice Affected: Decreased Startle Reflex” value (“Number … Decreased Startle Reflex” below) ([1]; 100 mg/kg p.o., 4 h) was 0, the “Number of Mice Affected: Extensor Limb Tone (hind limb)” value (“Number of Mice Affected … (hind limb)” for short) ([1]; 100 mg/kg p.o., 4 h) was 0 and the “Number of Mice Affected: Impaired Horizontal Screen Performance” value ([1]; 100 mg/kg p.o., 4 h) was 0. The “Number of Mice Affected: Impaired Visual Placing Reflex” value ([1]; 100 mg/kg p.o., 4 h) was 0, the “Number of Mice Affected: Locomotor Ataxia” value (from here on “Number … Locomotor Ataxia”) ([1]; 100 mg/kg p.o., 4 h) was 0 and the “Number of Mice Affected: Loss of Corneal Reflex” value (from here on “Number … Loss of Corneal Reflex”) ([1]; 100 mg/kg p.o., 4 h) was 0. For the same compound, the “Number of Mice Affected: Loss of Pinnal Reflex” value (“Number … Loss of Pinnal Reflex” below) ([1]; 100 mg/kg p.o., 4 h) was 0, the “Number of Mice Affected: Loss of Righting Reflex” value (from here on “Number … Loss of Righting Reflex”) ([1]; 100 mg/kg p.o., 4 h) was 0 and the “Number of Mice Affected: Passive Response to Handling” value (“Number of Mice Affected … to Handling” for short) ([1]; 100 mg/kg p.o., 4 h) was 0. The “Number of Mice Affected: Reduced Skin Plasticity” value (from here on “Number … Reduced Skin Plasticity”) ([1]; 100 mg/kg p.o., 4 h) was 0, the “Number of Mice Affected: Soft Body Tone” value ([1]; 100 mg/kg p.o., 4 h) was 0 and the “Number of Mice Affected: Tail Pinch Response, Absent” value (“Number of Mice Affected … Absent” for short) ([1]; 100 mg/kg p.o., 4 h) was 0. The “Behavioral or physical signs (general behavior)” value ([1]; 300 mg/kg p.o.) was “produced sedation”, the “Number of Mice Affected: Decreased Open Field Activity” value ([1]; 300 mg/kg p.o., 1 h) was 3 and the “Number … Decreased Startle Reflex” value ([1]; 300 mg/kg p.o., 1 h) was 3. The “Number of Mice Affected … (hind limb)” value ([1]; 300 mg/kg p.o., 1 h) was 3, the “Number of Mice Affected: Impaired Horizontal Screen Performance” value ([1]; 300 mg/kg p.o., 1 h) was 3 and the “Number of Mice Affected: Impaired Visual Placing Reflex” value ([1]; 300 mg/kg p.o., 1 h) was 3. For the same compound, the “Number … Locomotor Ataxia” value ([1]; 300 mg/kg p.o., 1 h) was 0, the “Number … Loss of Corneal Reflex” value ([1]; 300 mg/kg p.o., 1 h) was 3 and the “Number … Loss of Pinnal Reflex” value ([1]; 300 mg/kg p.o., 1 h) was 3. The “Number … Loss of Righting Reflex” value ([1]; 300 mg/kg p.o., 1 h) was 3, the “Number of Mice Affected … to Handling” value ([1]; 300 mg/kg p.o., 1 h) was 3 and the “Number … Reduced Skin Plasticity” value ([1]; 300 mg/kg p.o., 1 h) was 3. The “Number of Mice Affected: Soft Body Tone” value ([1]; 300 mg/kg p.o., 1 h) was 3, the “Number of Mice Affected … Absent” value ([1]; 300 mg/kg p.o., 1 h) was 3 and the “Number of Mice Affected: Decreased Open Field Activity” value ([1]; 300 mg/kg p.o., 4 h) was 2. For the same compound, the “Number … Decreased Startle Reflex” value ([1]; 300 mg/kg p.o., 4 h) was 0, the “Number of Mice Affected … (hind limb)” value ([1]; 300 mg/kg p.o., 4 h) was 2 and the “Number of Mice Affected: Impaired Horizontal Screen Performance” value ([1]; 300 mg/kg p.o., 4 h) was 2. For the same compound, the “Number of Mice Affected: Impaired Visual Placing Reflex” value ([1]; 300 mg/kg p.o., 4 h) was 0, the “Number … Locomotor Ataxia” value ([1]; 300 mg/kg p.o., 4 h) was 2 and the “Number … Loss of Corneal Reflex” value ([1]; 300 mg/kg p.o., 4 h) was 0. For the same compound, the “Number … Loss of Pinnal Reflex” value ([1]; 300 mg/kg p.o., 4 h) was 0, the “Number … Loss of Righting Reflex” value ([1]; 300 mg/kg p.o., 4 h) was 0 and the “Number of Mice Affected … to Handling” value ([1]; 300 mg/kg p.o., 4 h) was 0. The “Number … Reduced Skin Plasticity” value ([1]; 300 mg/kg p.o., 4 h) was 0, the “Number of Mice Affected: Soft Body Tone” value ([1]; 300 mg/kg p.o., 4 h) was 2 and the “Number of Mice Affected … Absent” value ([1]; 300 mg/kg p.o., 4 h) was 0. The “Behavioral or physical signs (general behavior)” value ([1]; doses up to 100 mg/kg p.o.) was “No behavioral or physical signs were observed”, the “Effect on performance (competitiveness) of dominant rats” value ([2]; 3 mg/kg b.i.d. p.o.) was “decreased the performance” and the “Effect on performance (competitiveness) of dominant rats” value ([2]; 30 mg/kg b.i.d. p.o.) was “significantly increased the competitiveness”. The “Effect on submissive rat behavior (competitiveness, time spent at feeder)” value ([3]; 3 mg/kg b.i.d. p.o.) was “did not have any effect” and the “Effect on submissive rat behavior (competitiveness, time spent at feeder)” value ([3]; 30 mg/kg b.i.d. p.o., vs vehicle-treated) was “significantly increased competitiveness”.
